Assay results taken from PMC8570331, “8-Hydroxyquinoline-Amino Acid Hybrids and Their Half-Sandwich Rh and Ru Complexes: Synthesis, Anticancer Activities, Solution Chemistry and Interaction with Biomolecules” (International Journal of Molecular Sciences, 2021).
Where two headings read alike, the source gives them in different places.

Key:
[1] = system: MRC-5 human lung fibroblast cell line; assay: MTT cytotoxicity assay in MRC-5; assay type: cell-based; details: Homo sapiens, MRC5, 72 h incubation
Protocol: (§1) The in vitro cytotoxic activity of the novel water-soluble amino acid derivatives of HQCl and their RhCp* and RuCym complexes was measured by the thiazolyl blue tetrazolium bromide (MTT) assay in two human colon adenocarcinoma cell lines (Colo-205 and Colo-320) and in one non-tumoral human lung fibroblast cell line (MRC-5). The results are given in terms of IC50 values (Table 1). Colo-205 is a drug-sensitive cell line with a normal ABCB1 transporter expression pattern, while Colo-320 is multidrug-resistant and overexpresses the ABCB1 system.
(§2) All cell culture reagents were obtained from Sigma-Aldrich and plasticware from Sarstedt (Nümbrecht, Germany). Human colonic Colo-205 doxorubicin-sensitive and Colo-320/MDR-LRP multidrug-resistant adenocarcinoma and MRC-5 human embryonal lung fibroblast cell lines were purchased from LGC Promochem, Teddington, UK. The colonic adenocarcinoma cells were cultured in Roswell Park Memorial Institute (RPMI) 1640 medium supplemented with 10% heat-inactivated fetal bovine serum, 2 mM L-glutamine, 1 mM sodium pyruvate and […]. The MRC-5 cell line was cultured in Eagle’s Minimal Essential Medium (EMEM, Sigma-Aldrich, St. Louis, MO, USA) supplemented with a non-essential amino acid (NEAA) mixture (Sigma-Aldrich, St. Louis, MO, USA) a selection of vitamins, 10% heat-inactivated foetal bovine serum (FBS), 2 mM L-glutamine (Sigma-Aldrich, St. Louis, MO, USA), 1 mM Na-pyruvate (Sigma-Aldrich, St. Louis, MO, USA), nystatin (Sigma-Aldrich, St. Louis, MO, USA) and a penicillin-streptomycin mixture (Sigma-Aldrich, St. Louis, MO, USA) in con-centrations of 100 U/L and 10 mg/L, respectively. The cells were incubated at 37 °C, in a 5% CO2, 95% air atmosphere. All cell lines were detached with Trypsin-Versene (EDTA) solution for 5 min at 37 °C.
(§3) The tested compounds were dissolved in 10% (v/v) DMSO/H2O using 4 mM concentration. Doxorubicin (Merck, Darmstadt, Germany) was used as a positive control. Then stock solutions were diluted in complete culture medium, and two-fold serial dilutions of compounds were prepared in 100 μL of the medium, horizontally. The semi-adherent colonic adenocarcinoma cells were treated with Trypsin-Versene (EDTA) solution. They were adjusted to a density of 1 × 10^4 cells in 100 μL of RPMI 1640 or EMEM medium and were added to each well, with the exception of the medium control wells. The final volume of the wells containing compounds and cells was 200 μL. The plates containing Colo-205, Colo-320 or MRC-5 cells were incubated at 37 °C for 72 h; at the end of the incubation period, 20 μL of MTT solution (from a stock solution of 5 mg/mL) were added to each well. After incubation at 37 °C for 4 h, 100 μL of SDS solution (10% in 0.01 M HCI) were added to each well, and the plates were further incubated at 37 °C overnight. […] The IC50 values were obtained from at least 3 independent experiments.

[2] = Proton dissociation constants of the ligands (pH-potentiometry, UV-vis, 1H NMR titrations); assay type: physicochemical; details: for pKa: aqueous solution, I = 0.2 M KNO3, T = 25.0 °C
Protocol: pH-potentiometric measurements were carried out at 25.0 ± 0.1 °C in water in the pH range between 2.0 and 11.5 and at a constant ionic strength of 0.2 M KNO3. The titrations were performed in a carbonate-free KOH solution (0.20 M). The exact concentrations of HNO3 and KOH solutions were determined by pH-potentiometric titrations. An Orion 710A pH-meter equipped with a Metrohm combined electrode (type 6.0234.100) and a Metrohm 665 Dosimat burette were used for the pH-potentiometric measurements. […] The average water ionization constant, pKw, was determined as 13.76 ± 0.01, which is in good agreement with the literature data. The initial volume of the samples was 5.0 mL. The ligand concentration was 1.75 or 2.0 mM. Samples were degassed by bubbling purified argon through them for about 10 min prior to the measurements, and the inert gas was also passed over the solutions during the titrations. The computer program Hyperquad2013 [46] was utilized to establish the stoichiometry of the species and to calculate the equilibrium constants, similarly to that performed in our previous works.
Agilent Cary 8454 diode array spectrophotometer was utilized to obtain UV-vis spectra in the wavelength range 190–1100 nm. The path length (ℓ) was 1 cm in most cases (the actual ℓ is always indicated in the legends of the figures). The concentrations of the ligands and complexes were between 88 and 240 µM. For HSA and ct-DNA containing samples, complex concentrations were 100 µM, and 0.5 and 2 equiv. biomolecule were added for kinetic studies, respectively. Individual samples contained 0–20 µM HSA and 0–1.75 mM (nucleotide) ct-DNA. Spectra were always background corrected. The computer program HypSpec was used to obtain stability constants.
Bruker Avance III HD Ascend 500 Plus instrument (Billerica, MA, USA) was used for NMR studies. ^1H NMR spectroscopic measurements were carried out with a WATERGATE water suppression pulse scheme in the presence of 10% (v/v) D2O in most cases. DSS internal standard was added to samples to obtain reference peaks. Complex concentrations were 0.5 mM or 1.0 mM, and 0.5 equiv. HSA was added. ^1H NMR titrations were carried out in the presence of 0.2 M KNO3. With the FHA model peptide, the measurements were performed at 0.5 or 1 mM metal complex concentrations, and 1:1, 1:2 or 2:1 peptide-to-metal complex ratios were applied. The computer program HypSpec was used to obtain stability constants.

[3] = Distribution coefficients, shake-flask n-octanol/buffered aqueous solution; assay type: physicochemical; details: pH 7.4, n-octanol/buffer, in 100 mM KCl, read-out: logD7.4
Protocol: It is worth noting that these amino acid hybrids have excellent water solubility due to their zwitterionic form, unlike most 8-hydroxyquinolines.
Distribution coefficients of the ligands as well as of the complexes were determined at pH = 7.4 using the traditional shake-flask method in n-octanol/buffered aqueous solution (20 mM phosphate) at different chloride ion concentrations (4, 24 and 100 mM) using UV-vis spectrophotometry for the analysis. The measurement and data evaluation were performed as described in our former work.

[4] = system: Colo-205 human colon adenocarcinoma cell line (doxorubicin-sensitive); design: method as in PMID 32500882; details: cited from earlier work
[5] = system: Colo-320 human colon adenocarcinoma cell line (multidrug-resistant); design: method as in PMID 32500882; details: cited from earlier work
[6] = design: method as in PMID 32500882; details: cited from earlier work
Colo-205 cells = assay: Annexin V-FITC / propidium iodide apoptosis induction assay, flow cytometry; assay type: cell-based, human; details: 3 h induction
Excerpt: 12H-Benzo[α]phenothiazine (M627) and cisplatin were used as positive controls. Annexin-V assay offers the possibility of detecting early phases of apoptosis. Apoptosis is a morphologically and biochemically distinct form of programmed cell death, which is the preferred mode of action for an anticancer compound. PI was used to distinguish between viable, early apoptotic and necrotic or late apoptotic cells. […] In order to better understand the different behavior of the studied compounds, an in-depth analysis of the various solution (physico-)chemical properties of the ligands and complexes were performed.
The assay was carried out using an Annexin V-FITC Apoptosis Detection Kit from Sigma-Aldrich according to the manufacturer’s instructions. The concentration of the Colo-205 cell suspension was adjusted to approximately 0.5 × 10^6 cells per mL in RPMI 1640 medium, and the cell suspension was distributed in 1 mL aliquots into a 24-well plate and then incubated overnight at 37 °C and 5% CO2. The next day, the medium was removed and replaced by 1 mL RPMI 1640 medium containing the compounds except for the control samples. […] After the incubation period, the samples were washed with PBS, and a fresh medium was added to the samples. The cells were incubated overnight at 37 °C and 5% CO2. The next day, 200 μL 0.25% Trypsin (Trypsin-Versen) was added to the samples until cells appeared detached, followed by the addition of 400 μL of medium supplemented with 10% bovine serum. The cells were collected in Eppendorf tubes and centrifuged at 2000× g for 2 min. The harvested cells were re-suspended in a fresh serum-free RPMI 1640 culture medium. After this step, the apoptosis assay was carried out according to the protocol of the kit. The fluorescence was analyzed immediately using a ParTec CyFlow flow cytometer (Partec GmbH, Münster, Germany).

[7] = design: method as in PMID 32500882; details: cited from earlier work; remark: listed apart in the source
Ac-Phe–His–Ala-NH2 (FHA) = system: Ac-Phe–His–Ala-NH2 (FHA); design: method as in PMID 34374386; details: cited from earlier work
Ac-Ala–His–Ala-NH2 (AHA) = system: Ac-Ala–His–Ala-NH2 (AHA); design: method as in PMID 34374386; details: cited from earlier work
[8] = biological target: T1, HSA site I (subdomain IIA) (Homo sapiens, UniProt P02768); design: method as in PMID 34374386; details: cited from earlier work
T1 construct: purchased Sigma-Aldrich A8763

[9] = biological target: T2, HSA site II (subdomain IIIA) (Homo sapiens, UniProt P02768); design: method as in PMID 34374386; details: cited from earlier work
T2 construct: purchased Sigma-Aldrich A8763

[10] = system: Colo-205 human colon adenocarcinoma cell line (doxorubicin-sensitive); assay: MTT cytotoxicity assay in Colo-205; assay type: cell-based; details: Homo sapiens, COLO 205, 72 h incubation
Protocol: as §1, §2, §3

[11] = system: Colo-320 human colon adenocarcinoma cell line (multidrug-resistant); assay: MTT cytotoxicity assay in Colo-320; assay type: cell-based; details: Homo sapiens, COLO 320, 72 h incubation
Protocol: as §1, §2, §3

T1 sequence (P02768 25-609): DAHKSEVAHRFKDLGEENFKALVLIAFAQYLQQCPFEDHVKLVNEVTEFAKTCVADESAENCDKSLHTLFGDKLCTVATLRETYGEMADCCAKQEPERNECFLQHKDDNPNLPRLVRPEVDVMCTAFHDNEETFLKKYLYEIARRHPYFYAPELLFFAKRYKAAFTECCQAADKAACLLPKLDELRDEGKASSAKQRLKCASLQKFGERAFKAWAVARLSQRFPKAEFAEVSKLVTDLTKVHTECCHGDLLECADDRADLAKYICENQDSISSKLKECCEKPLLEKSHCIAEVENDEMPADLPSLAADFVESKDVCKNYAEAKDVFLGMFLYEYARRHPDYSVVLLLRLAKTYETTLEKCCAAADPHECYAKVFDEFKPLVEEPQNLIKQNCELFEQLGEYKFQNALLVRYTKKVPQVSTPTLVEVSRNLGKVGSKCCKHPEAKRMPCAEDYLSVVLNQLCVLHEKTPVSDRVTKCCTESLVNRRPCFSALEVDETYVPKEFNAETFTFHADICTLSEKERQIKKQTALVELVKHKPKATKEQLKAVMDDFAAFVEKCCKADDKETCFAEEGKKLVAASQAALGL
T2 sequence (P02768 25-609): as above

In the case of `O=C(O)[C@H]1CCCN1Cc1cc(Cl)c2cccnc2c1O` [HQCl-D-Pro, (R)-5-chloro-7-((proline-1-yl)methyl)8-hydroxyquinoline], the IC50 [1] is reported as 5.33 ± 0.44 µM, the pKa ([2]; 1H NMR, read-out: pKa (NhPro/ProH+)) is reported as over 11 and the pKa ([2]; 1H NMR, read-out: pKa (NqH+)) is reported as 2.32 ± 0.03. For the same compound, the pKa ([2]; 1H NMR, read-out: pKa (OH)) was 7.75 ± 0.02, the pKa ([2]; UV-vis, read-out: pKa (NhPro/ProH+)) was over 11 and the pKa ([2]; UV-vis, read-out: pKa (NqH+)) was 2.13 ± 0.03. For the same compound, the pKa ([2]; UV-vis, read-out: pKa (OH)) was 7.77 ± 0.04, the pKa ([2]; pH-potentiometry, read-out: pKa (NhPro/ProH+)) was over 11 and the pKa ([2]; pH-potentiometry, read-out: pKa (NqH+)) was under 2. For the same compound, the pKa ([2]; pH-potentiometry, read-out: pKa (OH)) was 7.71 ± 0.06, the “fraction of the negatively charged species (O−, COO−, NhPro/ProH+)” value ([2]; at pH 7.4) was 30% and the logD [3] was -0.02 ± 0.01.
In the case of `O=C(O)[C@@H]1CCCN1Cc1cc(Cl)c2cccnc2c1O` [HQCl-L-Pro, (S)-5-chloro-7-((proline-1-yl)methyl)8-hydroxyquinoline], the IC50 [1] is given as 4.57 ± 0.21 µM, the IC50 [4] is given as 23.4 µM and the IC50 [5] is given as 8.5 µM. The “pKa (NH+Pro)” value [6] was over 11.5, the “pKa (NqH+)” value [6] was 2.36 and the “pKa (OH)” value [6] was 7.76.
With `c1ccc2c(c1)Nc1c(ccc3ccccc13)S2` [M627, 12H-Benzo[α]phenothiazine, reference compound] the “cell death, gated events” value (Colo-205 cells; 10 μM) was 15.2%, the “early apoptosis, gated events” value (Colo-205 cells; 10 μM) was 5.27% and the “late apoptosis and necrosis, gated events” value (Colo-205 cells; 10 μM) was 16.8%. For the same compound, the “cell death (Q1), gated events” value (Colo-205 cells; 20 μM) was 20.9%, the “early apoptosis (Q3), gated events” value (Colo-205 cells; 20 μM) was 21.7% and the “late apoptosis and necrosis (Q2), gated events” value (Colo-205 cells; 20 μM) was 36.2%.
In the case of `Cc1c(C)c(C)[c-](C)c1C.O=C(O)[C@@H]1CCC[NH+]1Cc1cc(Cl)c2cccnc2c1[O-].[Cl-].[Cl-].[Rh+3]` [RhCp*–HQCl-L-Pro, [RhCp*(HQCl-L-Pro)Cl]Cl], the “stability constant logK of the RhCp* complex” value [7] is listed as 13.41, the “FHA logKFHA′” value (Ac-Phe–His–Ala-NH2 (FHA)) is listed as 4.7 and the “reaction time with the tripeptides” value (Ac-Phe–His–Ala-NH2 (FHA)) is listed as “few seconds”. The “logK′ (AHA)” value (Ac-Ala–His–Ala-NH2 (AHA)) was 4.2, the “Trp-214 Quenching logKQ′, Site I” value [8] was 5.5 and the “DG Displacement logKDG′, Site II” value [9] was 5.6.
In the case of `Cc1ccc(C(C)C)cc1.O=C(O)[C@@H]1CCC[NH+]1Cc1cc(Cl)c2cccnc2c1[O-].[Cl-].[Cl-].[Ru+2]` [RuCym–HQCl-L-Pro, [RuCym(HQCl-L-Pro)Cl]Cl], the “FHA logKFHA′” value (Ac-Phe–His–Ala-NH2 (FHA)) is listed as 5.1, the “reaction time with the tripeptides” value (Ac-Phe–His–Ala-NH2 (FHA)) is listed as 3 h and the “logK′ (AHA)” value (Ac-Ala–His–Ala-NH2 (AHA)) is listed as 4.4. For the same compound, the “Trp-214 Quenching logKQ′, Site I” value [8] was 5.7 and the “DG Displacement logKDG′, Site II” value [9] was 6.1.
For `N.N.[Cl][Pt][Cl]` [cisplatin, reference compound], the “cell death, gated events” value (Colo-205 cells; 15 μM) was 3.18%, the “early apoptosis, gated events” value (Colo-205 cells; 15 μM) was 1.06% and the “late apoptosis and necrosis, gated events” value (Colo-205 cells; 15 μM) was 4.70%.
Work on `COc1cccc2c1C(=O)c1c(O)c3c(c(O)c1C2=O)C[C@@](O)(C(=O)CO)C[C@@H]3O[C@H]1C[C@H](N)[C@H](O)[C@H](C)O1` [doxorubicin, reference compound] yielded an IC50 [10] of 0.05 ± 0.01 µM, an IC50 [11] of 0.19 ± 0.02 µM and an IC50 [1] of 0.82 ± 0.16 µM.
